What all share (format): cell-based
In one data set the test system is HBeAg. The data set is described as follows: PHH HBV natural infection assay, HBeAg (alphalisa). The method, boiled down:
(§1)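 Primary human hepatocytes infected with HBV at 200 GE/cell plus 4% PEG8000 for 24 h, then sandwich-cultured 72 h. Compounds were added in two refreshes 72 h apart. HBsAg and HBeAg in supernatant measured by AlphaLISA.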
In general terms: Alpha assays give light when donor and acceptor beads are brought close together.

The subject of data set [1] is primary human hepatocyte (PHH). The data set is described as follows: PHH natural infection assay, cytotoxicity (Cell Counting Kit-8). To be noted: HBV-infected primary human hepatocytes, CCK8, end of treatment. Summed up:
(§2)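 HBV-infected at 200 GE/cell with 4% PEG8000 for 24 h, then sandwich-cultured 72 h in 1% DMSO and 0.25 mg/mL matrix gel. Compound added twice at 72-h intervals; supernatant HBsAg and HBeAg read by AlphaLISA, HBV DNA by quantitative fluorescence PCR kit. Cytotoxicity by CCK-8.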
(Formazan colour is commonly taken as a measure of viable cells.)

A further data set concerns HBsAg. The data set is described as follows: PHH HBV natural infection assay, HBsAg (alphalisa). Summed up: as §1
A short description of data set [2]: PHH natural infection assay, cytotoxicity (Cell Counting Kit-8). To be noted: human, HBV-infected primary human hepatocytes, CCK8, end of treatment. The method, boiled down:
as §2

Setting [3] is: read-out: HbeAg IC50, HBV-infected primary human hepatocytes, supernatant, compound medium refreshed two times with 72-hour interval.
Setting [4] is: read-out: HBsAg IC50, HBV-infected primary human hepatocytes, supernatant, compound medium refreshed two times with 72-hour interval.
Setting [5] is: Hepatitis B virus, Hepatocyte, 72 h, read-out: HbeAg IC50, HBV-infected primary human hepatocytes, supernatant, compound medium refreshed two times with 72-hour interval.
The mark [6] stands for this setting: Hepatitis B virus, Hepatocyte, 72 h, read-out: HBsAg IC50, HBV-infected primary human hepatocytes, supernatant, compound medium refreshed two times with 72-hour interval.

The source of these data is patent US20230286969A1, “AROMATIC SPIRO RING AMIDE DERIVATIVES FOR THE TREATMENT AND PROPHYLAXIS OF HEPATITIS B VIRUS INFECTION” (Hoffmann-La Roche Inc., priority 2020, published 2023).

Usually IC50 stands for the concentration that gives 50% inhibition. As a reminder, the CC50 is the concentration giving 50% cytotoxicity. High values mean better tolerance by the cells, low ones harm at low concentration.

SMILES strings stand for the structures. Where two headings read alike, the source gives them in different places. Where only a bound is given, the exact number is not on record here.

As for `N=S(=O)(c1ccc(C(=O)NC2CC3(C2)CC(c2nc4cc(Cl)cnc4o2)C3)o1)C1CC1` (single isomer, unassigned) [Example 64-b, N-[6-(6-chlorooxazolo[5,4-b]pyridin-2-yl)spiro[3.3]heptan-2-yl]-5-(cyclopropylsulfonimidoyl)furan-2-carboxamide], the IC50 was determined as 9.13 µM with HBeAg (setting [3]) and 9.46 µM in the data set with HBsAg (setting [4]). The compound also had a CC50 in data set [1] of more than 10 µM.

Consider `N=S(=O)(CC1CC1)c1ccc(C(=O)NC2CC3(C2)CC(c2nc4cc(Cl)ccc4o2)C3)o1` (single isomer, unassigned) [Example 54-a, N-[6-(5-chloro-1,3-benzoxazol-2-yl)spiro[3.3]heptan-2-yl]-5-(cyclopropylmethylsulfonimidoyl)furan-2-carboxamide], for which the IC50 with HBeAg (setting [3]) is 5.7 µM; in the data set with HBsAg (setting [4]), 6.06 µM. Moreover, the CC50 in data set [1] was more than 10 µM.

Turning to `O=C(NC1CC2(C1)CC(c1nc3cc(Cl)ccc3o1)C2)c1ccc(S(=O)(=O)NC(=O)C2COC2)o1` (stereo not shown) [Example 86, N-[6-(5-chloro-1,3-benzoxazol-2-yl)spiro[3.3]heptan-2-yl]-5-(oxetane-3-carbonylsulfamoyl)furan-2-carboxamide], the IC50 in the data set with HBeAg (setting [5]) amounted to 2.19 µM; with HBsAg (setting [6]), 2.99 µM. The same compound registered a CC50 at 144 h in data set [2] of more than 10 µM.

Take `O=C(NC1CC2(C1)CC(c1nc3cnc(Cl)cc3o1)C2)c1ccc(S(=O)(=O)C2CC2)o1` (stereo not shown) [Example 51, N-[6-(6-chlorooxazolo[4,5-c]pyridin-2-yl)spiro[3.3]heptan-2-yl]-5-cyclopropylsulfonyl-furan-2-carboxamide]: the IC50 with HBeAg (setting [5]) amounted to 1.15 µM; with HBsAg (setting [6]), 1.8 µM. In data set [2], this compound showed a CC50 at 144 h of more than 100 µM.

`O=C(NC1CC2(C1)CC(c1nc3cc(Cl)ccc3o1)C2)c1ccc(S(=O)(=O)NC(=O)C2CS(=O)(=O)C2)o1` (stereo not shown) [Example 83, N-[6-(5-chloro-1,3-benzoxazol-2-yl)spiro[3.3]heptan-2-yl]-5-[(1,1-dioxothietane-3-carbonyl)sulfamoyl]furan-2-carboxamide]: the IC50 in the data set on HBeAg (setting [5]) amounted to 1.97 µM; with HBsAg (setting [6]), 3.3 µM. For the same compound, the CC50 at 144 h in data set [2] was more than 10 µM.

For `N=S(=O)(c1ccc(C(=O)NC2CC3(C2)CC(c2nc4cc(Cl)ccc4o2)C3)o1)N1CCCC1` (stereo not shown) [Example 66, N-[6-(5-chloro-1,3-benzoxazol-2-yl)spiro[3.3]heptan-2-yl]-5-(pyrrolidin-1-ylsulfonimidoyl)furan-2-carboxamide], the values for the IC50 in the data set with HBeAg (setting [5]) and in the data set with HBsAg (setting [6]) were 3.81 µM and 8.18 µM, respectively. The CC50 at 144 h in data set [2] is more than 10 µM.

Consider `O=C(NC1CC2(C1)CC(c1nc3cc(Cl)ccc3o1)C2)c1ccc(S(=O)(=O)NC(=O)C2CCOCC2)o1` (stereo not shown) [Example 87, N-[[5-[[6-(5-chloro-1,3-benzoxazol-2-yl)spiro[3.3]heptan-2-yl]carbamoyl]-2-furyl]sulfonyl]tetrahydropyran-4-carboxamide], for which the half-maximal inhibitory concentration (IC50) in the data set with HBeAg (setting [5]) amounted to 0.981 µM; in the data set with HBsAg (setting [6]), 1.3 µM. Besides, the CC50 at 144 h in data set [2] was more than 10 µM.

Take `O=C(NC1CC2(C1)CC(c1nc3cc(Cl)cnc3o1)C2)c1ccc([S+]([O-])C2CC2)o1` (stereo not shown) [Example 50, N-[6-(6-chlorooxazolo[5,4-b]pyridin-2-yl)spiro[3.3]heptan-2-yl]-5-cyclopropylsulfinyl-furan-2-carboxamide]: the IC50 with HBeAg (setting [5]) stood at 0.35 µM; in the data set on HBsAg (setting [6]) it was 0.54 µM. In addition, the CC50 at 144 h in data set [2] was more than 100 µM.

For the compound `N=S(=O)(CC1CC(F)(F)C1)c1ccc(C(=O)NC2CC3(C2)CC(c2nc4cc(Cl)ccc4o2)C3)o1` (stereo not shown) [Example 57, N-[6-(5-chloro-1,3-benzoxazol-2-yl)spiro[3.3]heptan-2-yl]-5-[(3,3-difluorocyclobutyl)methylsulfonimidoyl]furan-2-carboxamide], the IC50 in the data set with HBeAg (setting [5]) was determined as 0.754 µM; with HBsAg (setting [6]), 0.884 µM. The same compound gave a CC50 at 144 h in data set [2] of 81.9 µM.

For `O=C(N[C@H]1CC2(C1)C[C@H](c1nc3cc(Cl)ccc3o1)C2)c1ccc(S(=O)(=O)NC(=O)C2CCC2)o1` (single isomer, unassigned) [Example 72, (Sa)—N-[6-(5-chloro-1,3-benzoxazol-2-yl)spiro[3.3]heptan-2-yl]-5-(cyclobutanecarbonylsulfamoyl)furan-2-carboxamide, or (Ra)—N-[6-(5-chloro-1,3-benzoxazol-2-yl)spiro[3.3]heptan-2-yl]-5-(cyclobutanecarbonylsulfamoyl)furan-2-carboxamide], the IC50 with HBeAg (setting [5]) was 0.386 µM; in the data set on HBsAg (setting [6]), 0.314 µM. The compound also had a CC50 at 144 h in data set [2] of more than 100 µM.

Take `O=C(NC1CC2(C1)CC(c1nc3cc(Cl)ccc3o1)C2)c1ccc(S(=O)(=O)NC(=O)C2CCS(=O)(=O)C2)o1` (stereo not shown) [Example 84, N-[6-(5-chloro-1,3-benzoxazol-2-yl)spiro[3.3]heptan-2-yl]-5-[(1,1-dioxothiolane-3-carbonyl)sulfamoyl]furan-2-carboxamide]: the IC50 with HBeAg (setting [5]) was determined as 6.32 µM; with HBsAg (setting [6]), 9 µM. Besides, the cytotoxic concentration (CC50) at 144 h in data set [2] is more than 10 µM.

For `O=C(NC1CC2(C1)CC(c1nc3cc(Cl)ccc3o1)C2)c1cc(Br)co1` (stereo not shown) [Example 4, 4-bromo-N-[6-(5-chloro-1,3-benzoxazol-2-yl)spiro[3.3]heptan-2-yl]furan-2-carboxamide], the IC50 turned out to be 2.94 µM in the data set on HBeAg (setting [5]) and 5.57 µM in the data set with HBsAg (setting [6]). In data set [2], this compound registered a CC50 at 144 h of 56 µM.

Take `CS(=O)(=O)c1ccc(C(=O)NC2CC3(C2)CC(c2nc4cc(Cl)ccc4o2)C3)o1` (stereo not shown) [Example 15, N-[6-(5-chloro-1,3-benzoxazol-2-yl)spiro[3.3]heptan-2-yl]-5-methylsulfonyl-furan-2-carboxamide]: the IC50 turned out to be 1.17 µM with HBeAg (setting [5]) and 1.95 µM in the data set on HBsAg (setting [6]). The CC50 at 144 h in data set [2] amounted to 79 µM.

Take `O=C(NC1CC2(C1)CC(c1nc3cc(Cl)ccc3o1)C2)c1ccc(S(=O)(=O)NC(=O)C2CCCS(=O)(=O)C2)o1` (stereo not shown) [Example 85, N-[6-(5-chloro-1,3-benzoxazol-2-yl)spiro[3.3]heptan-2-yl]-5-[(1,1-dioxothiane-3-carbonyl)sulfamoyl]furan-2-carboxamide]: the IC50 was determined as 1.67 µM in the data set on HBeAg (setting [5]) and 2.52 µM in the data set on HBsAg (setting [6]). In data set [2], the CC50 at 144 h is more than 10 µM.

For the compound `CS(=O)(=O)CCc1ccc(C(=O)NC2CC3(C2)CC(c2nc4cc(Cl)ccc4o2)C3)o1` (stereo not shown) [Example 32, N-[6-(5-chloro-1,3-benzoxazol-2-yl)spiro[3.3]heptan-2-yl]-5-(2-methylsulfonylethyl)furan-2-carboxamide], the IC50 with HBeAg (setting [5]) came to 3.15 µM; in the data set with HBsAg (setting [6]), 4.94 µM. Also, in data set [2], the CC50 at 144 h was more than 100 µM.

With `N=S(=O)(c1ccc(C(=O)NC2CC3(C2)CC(c2nc4cc(Cl)ccc4o2)C3)o1)C1CC1` (stereo not shown) [Example 53, N-[6-(5-chloro-1,3-benzoxazol-2-yl)spiro[3.3]heptan-2-yl]-5-(cyclopropylsulfonimidoyl)furan-2-carboxamide], the concentration for half-maximal inhibition (IC50) in the data set on HBeAg (setting [5]) came to 0.394 µM; in the data set with HBsAg (setting [6]), 0.494 µM. This compound also had a CC50 at 144 h in data set [2] of more than 10 µM.

In data set [1], `N=S(=O)(c1ccc(C(=O)NC2CC3(C2)CC(c2nc4cc(Cl)cnc4o2)C3)o1)C1CC1` (single isomer, unassigned) [Example 64-d, N-[6-(6-chlorooxazolo[5,4-b]pyridin-2-yl)spiro[3.3]heptan-2-yl]-5-(cyclopropylsulfonimidoyl)furan-2-carboxamide] displayed a CC50 of more than 10 µM.
